This note sets out measurements from US8536304B2, “Tumour-associated peptides that bind to MHC molecules” (Immatics Biotechnologies GmbH, priority 2002, dated 2013).

Holding throughout (assay type): cell-based, human
One assay deals with CD8+-T-lymphocytes. Description: HLA-A*0201-tetramer staining of peripheral blood mononuclear cells from healthy individuals. An excerpt:
Peripheral blood mononuclear cells from healthy patients were stained with HLA-A*0201-tetramers which were folded with adipophilin-, keratin 18- or met-protooncogene (c-Met)-peptides: For generation of the tetramers, recombinant HLA-A*0201-molecules were folded in vitro with the peptides […] (SEQ ID No. 2, adipophilin), […] (SEQ ID No. 3, keratin 18) or […] (SEQ ID No. 1, met-protooncogene, c-Met), purified by means of gel filtration, biotinylated and mixed with streptavidin to link the monomers.
In FIG. 1, the results of double staining are shown in dotplots, whereby in the middle row the results of staining with keratin 18 is shown. Between 0.02 and 0.2% of the CD8^+-positive T-cells were specific for keratin 18.

The next assay relates to 51Cr-labeled U 266. Description: Lysis-inhibition assay with cold peptide-pulsed T2 inhibitor cells, target U 266. To be noted: c-Met-peptide-induced CTL, inhibitor:target 20:1, FIGS. 4a and 4b. The procedure: (§1) To further verify the antigen-specificity and the MHC-restriction of the in-vitro-induced CTL, inhibition assays with non-^51Cr-labeled (“cold”) inhibitor cell lines were performed.
(§2) In doing so, the ability of peptide-pulsed cell lines was analyzed to inhibit the lysis of tumor cells (competition assay). For this purpose, an excess of inhibitor (that is an excess of unlabeled pulsed cells) was used. The ratio of inhibitor (peptide-pulsed cells) to target (tumor cells) was 20:1. When inhibitor cell lines were lysed, no ^51Cr was released, since the inhibitor cell lines were unlabeled.
(§3) Cell line T2 (HLA-A*02; TAP-deficient; see under 2.5.a) was used as inhibitor. Previous to the assay, this cell line T2 was pulsed with the relevant peptides (SEQ ID NOS:1 or 2) or an irrelevant control peptide (Survivin (=Sv), SEQ ID NO:80), respectively.
(§4) In FIGS. 4a and 4b, lysis of the ^51Cr-labeled cell lines U 266 and A 498 was tested without inhibitor cell line (see the curve with black filled boxes); lysis with inhibitor cell line T2, pulsed with an irrelevant peptide (Survivin; SEQ ID NO:80; negative control, curves with the filled triangles); and lyses with the inhibitor cell line T2 pulsed with the c-Met-peptide with SEQ ID NO:1 (curves with the empty rhombus).

A further assay relates to 51Cr-labeled A 498. Description: Lysis-inhibition assay with cold peptide-pulsed T2 inhibitor cells, target A 498. On the procedure:
as §1, §2, §3, §4
With these inhibition assays, the cells were incubated with 10 μg/ml antibody previous to seeding on the 96-well-plates for 30 min.

Assay [1] relates to autologous DC of CLL patient. In words: 51Cr-release assay, CTL of CLL patient against autologous peptide-pulsed DC. The note with it: adipophilin-peptide-induced CTL of CLL patient; FIG. 6. The procedure: In the CTL-assays, tumor cells, peptide-pulsed cells of different cell lines and autologous DC were used as target cells. Peptide-pulsed cells were pulsed with 50 μg/ml peptide (SEQ ID No. 1 or SEQ ID No. 2) for 2 hours. All target cells were labeled with [^51Cr] sodium chromate in RP10 (RPMI 1640, supplemented with 10% heat inactivated calf serum and antibiotics) for 1 hour at 37° C. Subsequently, 10^4 cells/well were transferred to a 96-well round bottomed plate. Varying numbers of CTL were added to give a final volume of 200 μl and incubated for 4 hours at 37° C. At the end of the assays, supernatants (50 μl/well) were harvested and counted in a beta-plate counter. […] The spontaneous and maximal release were determined in the presence of either medium or 2% Triton X-100, respectively.
In a further experiment, CTL were generated from PBMNC of HLA-A*0201-positive patient with chronic lymphatic leukemia (CLL), which were specific for adipophilin-peptide with SEQ ID NO:2. The patient was in remission after treatment with fludarabine. Further, autologous CLL-cells and DC of this patient were used as ^51Cr-labeled targets in an assay, in which ^51Cr-release is mediated by the peptide-induced CTL.

For “ALLNIKVKL (listed as Homo sapiens) [SEQ ID No. 3, HLA-A*02 ligand, keratin 18 365-373]”, the “healthy individuals with a significant population of specific CD8+-T-lymphocytes” value with CD8+-T-lymphocytes was “four out of 22”.

For the sequence “ELTLGEFLKL (listed as Homo sapiens) [Survivin, irrelevant control peptide, reference compound]”, the “lysis of 51Cr-labeled tumor cells in presence of unlabeled T2 inhibitor cells pulsed with the peptide” value in the assay with 51Cr-labeled U 266 is recorded as “not able to inhibit”; in the assay with 51Cr-labeled A 498 (c-Met-peptide-induced CTL, inhibitor:target 20:1, FIGS. 4a and 4b), “not able to inhibit”. The “inhibition of CTL-induced lysis of tumor cell line by T2 cells pulsed with the peptide” value with 51Cr-labeled A 498 (adipophilin-peptide-induced CTL, FIG. 4c) was “not able to inhibit”. The “lysis of autologous DC pulsed with the peptide” value in assay [1] is “not lysed”.
